The supplement of paper PMC11061612

Key:
[1] = tested on: KP-4 (Pancreatic Carcinoma); assay: Bliss excess, mean over the matrix (fraction); higher = more synergy
Summary of the method: (§1)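 Bliss excess equals the observed combination effect minus the expected value EA + EB − EA·EB, where EA and EB are the effects of each agent alone. Combination Emax is the second-highest inhibition within the matrix. Inhibition was scaled from CellTiter-Glo 2.0 luminescence, with 0 set by vehicle wells and 1 by blank wells, after 72 hours of two-drug dosing of cells plated in 1536-well plates.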

[2] = tested on: BxPC-3 (Pancreatic Carcinoma); assay: combination Emax (second highest fraction inhibited in the dose matrix, 72 h); higher = more inhibition; extreme values may be limits of the assay
Summary of the method: as §1

[3] = tested on: COR-L88 (Small Cell Lung Carcinoma); assay: as above
Summary of the method: as §1

KALS-1 (Glioblastoma) = assay: as above
Summary of the method: as §1

[4] = tested on: KP-4 (Pancreatic Carcinoma); assay: as above
Summary of the method: as §1

[5] = tested on: LS-1034 (Colorectal Carcinoma); assay: as above
Summary of the method: as §1

[6] = tested on: MDA-MB-415 (Breast Carcinoma); assay: as above
Summary of the method: as §1

[7] = tested on: MS-1 (Small Cell Lung Carcinoma); assay: as above
Summary of the method: as §1

[8] = tested on: NAMALWA (Burkitt's Lymphoma); assay: as above
Summary of the method: as §1

[9] = tested on: SCC-4 (Oral Cavity Carcinoma); assay: as above
Summary of the method: as §1

SK-N-SH (Neuroblastoma) = assay: as above
Summary of the method: as §1

[10] = tested on: SKG-IIIa (Cervical Carcinoma); assay: as above
Summary of the method: as §1

[11] = tested on: SNU-423 (Hepatocellular Carcinoma); assay: as above
Summary of the method: as §1

[12] = tested on: T84 (Colorectal Carcinoma); assay: as above
Summary of the method: as §1

| Structure (SMILES) | Bliss excess [1] | combination Emax [2] | combination Emax [3] | combination Emax (KALS-1 (Glioblastoma)) | combination Emax [4] | combination Emax [5] | combination Emax [6] | combination Emax [7] | combination Emax [8] | combination Emax [9] | combination Emax (SK-N-SH (Neuroblastoma)) | combination Emax [10] | combination Emax [11] | combination Emax [12] |
| --- | --- | --- | --- | --- | --- | --- | --- | --- | --- | --- | --- | --- | --- | --- |
| C[C@@H](Nc1cc(F)cc(F)c1)c1cc(C(=O)N(C)C)cc2c(=O)cc(N3CCOCC3)oc12 [AZD8186] + CC(=O)c1c(C)c2cnc(Nc3ccc(N4CCNCC4)cn3)nc2n(C2CCCC2)c1=O [Palbociclib] (first compound max 10 µM, 7x7, partner max 10 µM) | 0.0976 | 0.347 | 0.201 | 0.38 | 0.601 | 0.438 | 0.794 | 0.295 | 0.616 | 0.327 | 0.492 | 0.235 | 0.454 | 0.235 |
| O=C(c1cc(Cc2n[nH]c(=O)c3ccccc23)ccc1F)N1CCN(C(=O)C2CC2)CC1 [Olaparib] + Cc1c2c(nn1C)CSCc1cc(n(C)n1)CSc1cc(c3ccccc3c1)OCCCc1c(C(=O)O)n(C)c3c-2c(Cl)ccc13 [AZD5991] (first compound max 10 µM, 7x7, partner max 1 µM) | -0.0386 | 0.043 | 0.227 | 0.163 | 0.113 | 0.0008 | 0.339 | 0.501 | 0.979 | 0.128 | 0.333 | 0.128 | 0.16 | 0.111 |
| C[C@@H]1COCCN1c1cc(C2([S@](C)(=N)=O)CC2)nc(-c2ccnc3[nH]ccc23)n1 [AZD6738] + Nc1ccn([C@@H]2O[C@H](CO)[C@@H](O)C2(F)F)c(=O)n1 [Gemcitabine] (first compound max 10 µM, 7x7, partner max 0.3 µM) | – | 0.63 | 0.756 | 0.896 | – | 0.902 | 0.642 | 0.961 | 1 | 0.849 | 0.932 | 0.623 | 0.724 | 0.793 |
| C=CCn1c(=O)c2cnc(Nc3ccc(N4CCN(C)CC4)cc3)nc2n1-c1cccc(C(C)(C)O)n1 [AZD1775] + CCc1c2c(nc3ccc(O)cc13)-c1cc3c(c(=O)n1C2)COC(=O)[C@]3(O)CC [SN-38] (first compound max 1 µM, partner max 0.3 µM) | 0.0054 | 0.562 | 0.671 | 0.965 | – | 0.894 | 0.469 | 0.86 | 1 | 0.902 | 0.957 | 0.725 | 0.598 | 0.867 |
| Cc1c2c(nn1C)CSCc1cc(n(C)n1)CSc1cc(c3ccccc3c1)OCCCc1c(C(=O)O)n(C)c3c-2c(Cl)ccc13 [AZD5991] + CS(=O)(=O)CCNCc1ccc(-c2ccc3ncnc(Nc4ccc(OCc5cccc(F)c5)c(Cl)c4)c3c2)o1 [Lapatinib] (first compound max 1 µM, 7x7, partner max 10 µM) | -0.0211 | 0.483 | 0.305 | 0.332 | 0.15 | 0.39 | 0.558 | 0.535 | 0.977 | 0.81 | 0.442 | 0.456 | 0.289 | 0.469 |
| C=CCn1c(=O)c2cnc(Nc3ccc(N4CCN(C)CC4)cc3)nc2n1-c1cccc(C(C)(C)O)n1 [AZD1775] + Nc1ccn([C@@H]2O[C@H](CO)[C@@H](O)C2(F)F)c(=O)n1 [Gemcitabine] (first compound max 1 µM, partner max 0.3 µM) | – | 0.554 | 0.65 | 0.929 | – | – | 0.58 | 0.838 | 1 | 0.688 | 0.879 | 0.643 | 0.655 | 0.85 |
| CN(CCO)CC[C@H](CSc1ccccc1)Nc1ccc(S(=O)(=O)NC(=O)c2ccc(N3CCC([C@@H](O)c4ccccc4-c4ccc(Cl)cc4)CC3)cc2)cc1S(=O)(=O)C(F)(F)F [AZD4320] + CC(=O)O[C@H]1C(=O)[C@@]2(C)[C@H]([C@H](OC(=O)c3ccccc3)[C@]3(O)C[C@H](OC(=O)[C@H](O)[C@@H](NC(=O)c4ccccc4)c4ccccc4)C(C)=C1C3(C)C)[C@]1(OC(C)=O)CO[C@@H]1C[C@@H]2O [Paclitaxel] (first compound max 1 µM, 7x7, partner max 3 µM) | -0.0097 | 0.928 | 0.997 | 0.984 | – | 0.82 | 0.923 | 0.971 | 1 | 0.971 | 0.989 | 0.905 | 0.959 | 0.726 |
| N#Cc1cnc(Nc2cc(NC[C@H]3CNCCO3)c(C(F)(F)F)cn2)cn1 [SRA737] + Nc1ccn([C@@H]2O[C@H](CO)[C@@H](O)C2(F)F)c(=O)n1 [Gemcitabine] (first compound max 10 µM, 7x7, partner max 0.3 µM) | – | 0.644 | 0.617 | 0.87 | – | 0.919 | 0.638 | 0.945 | 1 | 0.758 | 0.852 | 0.575 | 0.745 | 0.827 |
| CN(CCO)CC[C@H](CSc1ccccc1)Nc1ccc(S(=O)(=O)NC(=O)c2ccc(N3CCC([C@@H](O)c4ccccc4-c4ccc(Cl)cc4)CC3)cc2)cc1S(=O)(=O)C(F)(F)F [AZD4320] + Nc1ccn([C@@H]2O[C@H](CO)[C@@H](O)C2(F)F)c(=O)n1 [Gemcitabine] (first compound max 1 µM, 7x7, partner max 0.3 µM) | – | 0.577 | 0.947 | 0.595 | – | 0.592 | 0.637 | 0.78 | 0.99 | 0.743 | 0.968 | 0.475 | 0.605 | 0.508 |
